Source: PMC7460240 (Biomedicines, 2020)
Converted amounts (≈) assume the structure as drawn. Structures can show the parent of a compound that is named as a salt.

Experiments:
H295R cells [1] = assay: Cytotoxicity assay (neutral red, 48 h) on H295R cells; type: cell-based, human
Method: (§1) Cytotoxicity assays on H295R cells were carried out as previously described. Briefly, H295R cells were grown in 96-well plates to achieve 70% to 80% confluence. […] An amount of 100 µL of medium containing increasing concentrations of dxr was then added. […] After 48 h, cells were incubated 3 h at 37 °C with neutral red (NR) solution following the manufacturer’s protocol. Absorbance was measured in a microplate reader (Multiskan Go Microplate Spectrophotometer from Thermo Fisher Scientific, Illkirch, France).

H295R cells [2] = assay: cells; settings: Homo sapiens, NCI-H295R, 168 h, read-out: Dxr-IC50 (proliferation), astemizole 0 µM
Ptch1 [3] = molecular target: T1, Ptch1 (Homo sapiens, UniProt Q13635); assay: Screening on the resistance to doxorubicin of yeast expressing human Ptch1 (growth, OD600); type: cell-based; parameters: expressed in transfected cells; host or cells: Saccharomyces cerevisiae strain K699; settings: 10 µM compound; for effect on resistance/growth of hPtch1-expressing yeast in the presence of dxr: 10 µM dxr, 18 °C, about 72 h
T1 sequence (Q13635 1-1447): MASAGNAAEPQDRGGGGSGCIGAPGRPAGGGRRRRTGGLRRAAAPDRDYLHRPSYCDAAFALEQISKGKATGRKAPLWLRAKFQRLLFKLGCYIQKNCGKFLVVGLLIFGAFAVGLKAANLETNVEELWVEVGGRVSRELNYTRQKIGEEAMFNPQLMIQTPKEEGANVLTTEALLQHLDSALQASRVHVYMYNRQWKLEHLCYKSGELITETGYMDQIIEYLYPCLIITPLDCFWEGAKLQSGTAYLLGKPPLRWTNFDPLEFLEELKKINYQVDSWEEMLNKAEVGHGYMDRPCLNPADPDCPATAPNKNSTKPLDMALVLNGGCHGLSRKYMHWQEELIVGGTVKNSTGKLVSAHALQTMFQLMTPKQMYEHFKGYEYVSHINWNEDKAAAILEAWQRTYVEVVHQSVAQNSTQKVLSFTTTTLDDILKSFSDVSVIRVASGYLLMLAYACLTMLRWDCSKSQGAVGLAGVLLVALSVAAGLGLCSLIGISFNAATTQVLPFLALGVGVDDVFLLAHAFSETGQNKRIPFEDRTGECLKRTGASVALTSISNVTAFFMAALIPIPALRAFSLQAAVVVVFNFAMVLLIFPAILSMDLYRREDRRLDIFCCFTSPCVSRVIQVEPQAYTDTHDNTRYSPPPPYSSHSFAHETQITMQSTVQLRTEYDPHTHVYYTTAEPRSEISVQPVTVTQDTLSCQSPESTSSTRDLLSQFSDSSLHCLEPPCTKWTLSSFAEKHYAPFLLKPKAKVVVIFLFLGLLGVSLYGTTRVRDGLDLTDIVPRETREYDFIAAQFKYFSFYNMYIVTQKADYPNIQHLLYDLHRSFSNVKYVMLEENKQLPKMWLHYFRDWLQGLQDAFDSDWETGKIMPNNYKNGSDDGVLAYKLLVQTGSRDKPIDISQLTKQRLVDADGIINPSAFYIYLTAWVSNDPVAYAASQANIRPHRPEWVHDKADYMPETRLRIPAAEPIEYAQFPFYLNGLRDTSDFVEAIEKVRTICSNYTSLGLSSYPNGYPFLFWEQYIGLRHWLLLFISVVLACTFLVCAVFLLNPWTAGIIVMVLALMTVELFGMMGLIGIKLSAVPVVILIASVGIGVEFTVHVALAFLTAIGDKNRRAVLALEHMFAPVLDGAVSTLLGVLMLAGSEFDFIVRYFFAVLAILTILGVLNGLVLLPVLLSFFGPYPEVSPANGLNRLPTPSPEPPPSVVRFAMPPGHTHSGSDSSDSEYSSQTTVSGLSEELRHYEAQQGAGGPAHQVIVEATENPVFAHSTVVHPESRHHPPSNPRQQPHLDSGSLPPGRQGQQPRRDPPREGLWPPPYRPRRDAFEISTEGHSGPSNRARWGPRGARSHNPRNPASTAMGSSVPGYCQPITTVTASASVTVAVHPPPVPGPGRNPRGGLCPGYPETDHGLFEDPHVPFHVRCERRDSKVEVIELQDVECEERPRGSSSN
Method: The screening of molecules on yeast was carried out as described in [18]. Briefly, S. cerevisiae expressing human Ptch1 were grown at 30 °C up to an OD600 between 1 and 2in minimal medium containing 2% of glucose and amino acid cocktail without leucine, and then diluted in rich medium containing 2% glucose in 96-well plates. An amount of 10 µM of molecules to be tested was added in 8 wells (10 molecules can be tested on one plate) and 10 µM of dxr was added to half of the wells. Plates were incubated at 18 °C on a shaker at 1250 rpm (microtiter plate shaker SSL5 Stuart) and absorbance at 600 nm was recorded for about 72 h.
Figure 1 P136 inhibits doxorubicin efflux activity of hPtch1 when expressed in yeast. (A) P136 inhibits the resistance of hPtch1-expressing yeast to doxorubicin. hPtch1-expressing yeast were grown in the presence of 10 µM of P136, P298 or P375, and in the presence or absence of 10 µM doxorubicin (dxr). DMSO was used as control. The growth of yeast was measured by absorbance at 600 nm. (B) P136 inhibits the efflux of doxorubicin of hPtch1-expressing yeast. hPtch1-expressing yeast and control yeast were incubated with dxr for 2 h and fixed for dxr loading control or resuspended in buffer containing DMSO or 10 μM P136 for 10 min, fixed and deposited on a coverslip for analysis by fluorescence microscopy. The dxr fluorescence of 100 yeast for each condition from 3 independent experiments was quantified using the ImageJ software. […] Significance is attained at p < 0.05 (*) (***: p < 0.0005, ****: p < 0.00005, ns: no significant difference).

hPtch1 = molecular target: T2, hPtch1 (Homo sapiens, UniProt Q13635); assay: Doxorubicin efflux measurement in hPtch1-expressing yeast (fluorescence microscopy); type: cell-based; settings: 10 µM P136 in efflux buffer, 10 min, 2-deoxy-D-glucose
T2 construct: expressed in transfected cells; host or cells: Saccharomyces cerevisiae strain K699
T2 sequence (Q13635 1-1447): T1 sequence (Q13635 1-1447)
Method: Efflux measurements were carried out as described in [19]. On yeast: hPtch1-expressing yeasts or control yeasts were grown to an OD600 of 5, centrifuged, washed with cold water and resuspended in HEPES–NaOH buffer (pH 7.0) containing 5 mM 2-deoxy-D-glucose and 10 µM dxr for 2 h at 4 °C. […] Yeasts were centrifuged, resuspended in 4% PFA and deposited on a coverslip with SlowFade Gold antifade reagent containing DAPI (Invitrogen).
(§2) Images were acquired with a Zeiss Axioplan 2 fluorescence microscope coupled to a digital charge-coupled device camera using a 63X objective for yeast or a 40X /1.3 Plan NeoFluar objective for cells, and filters for Alexa 594 or FITC for dxr or Bo-chol analysis, respectively. Dxr or Bo-chol fluorescence was quantified using the ImageJ software. About 100 yeast/cells (from three wells) were scored per condition.
Figure 1 P136 inhibits doxorubicin efflux activity of hPtch1 when expressed in yeast. […] The growth of yeast was measured by absorbance at 600 nm. (B) P136 inhibits the efflux of doxorubicin of hPtch1-expressing yeast. hPtch1-expressing yeast and control yeast were incubated with dxr for 2 h and fixed for dxr loading control or resuspended in buffer containing DMSO or 10 μM P136 for 10 min, fixed and deposited on a coverslip for analysis by fluorescence microscopy. […]

[4] = Cytotoxicity assay (neutral red, 48 h) on H295R cells; type: cell-based, human; settings: human, H295R cells at 80% confluence
Method: as §1

H295R cells [5] = assay: Synergy analysis of drug combination (Chou-Talalay) on H295R cells; type: cell-based, human; settings: 48 h, dxr with 1 µM astemizole
Method: Synergy analysis was performed using the Chou-Talalay method for drug combination as described in [21, 22]. […] Normalized isobolograms and Chou-Talalay’s plots (Fa-CI plot were Fa is the fraction affected and CI is the combination index) were created using the Compusyn Software (Version 1.0 downloaded from www.combosyn.com). These allow quantitative determination of drug interactions, where CI < 1 (below the diagonal), =1 (diagonal) and >1 (above the diagonal) indicate synergism, additive effect and antagonism, respectively. Dose-reduction index (DRI) is reported.

caspase 3/7 activity = assay: Apoptosis measurement (Caspase-Glo 3/7) in H295R cells; type: cell-based, human; settings: 48 h, 0.5 µM astemizole, no dxr
Method: Quantification of caspase 3/7 activity was performed using the luminescent assay Caspase-Glo 3/7 (Promega, Charbonnières-les-Bains, France) and a luminometer (Glomax 96 Microplate Luminometer from Promega, Charbonnières-les-Bains, France) following the manufacturer’s protocol.

H295R cells [6] = assay: Clone formation of H295R cells (14 days, crystal violet); type: cell-based, human; settings: combination of dxr and astemizole
Method: After 14 days, clones were stained with crystal violet and pictures were taken. Cells were then solubilized and absorbance was measured in a microplate reader at 550 nm (Multiskan Go Microplate Spectrophotometer, Thermo Scientific, Illkirch, France).

H295R cells [7] = assay: Spheroid formation in 3D culture of H295R cells; type: cell-based, human; settings: 14 days
Method: H295R cells were cultured in DMEM/F-12, 2% NuSerum, 1% ITS Plus and penicillin/streptomycin supplemented with 20 µg/µL EGF and 20 µg/µL FGF. […] After 14 days, images of each well were taken using a cell imaging multi-mode reader (Cytation 5 from Bio Tek, Colmar, France). Then, 100 µL of the medium was removed from each well and 100 µL of Cell Titer Glow 3D reagent (Promega) was added. Spheroids were disrupted according to the protocol from the Cell Titer Glow 3D Viability Assay (Promega) and viability was measured in a microplate reader at 550 nm (Multiskan Go Microplate Spectrophotometer, Thermo Scientific).

[8] = Distribution coefficient octanol/PBS pH 7.4; type: physicochemical; settings: read-out: LogD7.4
[9] = Solubility in aqueous buffer (PBS, pH 7.4); type: physicochemical
[10] = Metabolic stability in rat liver microsomes; type: in vitro ADME; settings: NADPH, read-out: RLM T1/2
Method: (§3) Profiling and PK studies were performed by GalenAuxi Co (Oxford, UK) as previously described. […] Plasma samples (50 μL) were collected via the facial vein at 3, 10, 30, 60, 120, 240, 360 and 1440 min post-dose for the IV group, and at 10, 30, 60, 120, 240, 360, 480 and 1440 min post-dose for the PO group in K2EDTA-coated tubes, mixed gently and centrifuged at 2500 g for 15 min at 4 °C within 1 h after collection. For control animals, blood was collected by cardiac puncture. Plasma samples were prepared in acetonitrile for LC-MS/MS analysis. Peak areas were recorded and the concentrations of the test compound in the unknown plasma samples were determined using the respective calibration curve.
(§4) We determined its lipophilicity described by the distribution constant LogD, its solubility, which is an important parameter since water is the solvent of choice for the liquid pharmaceutical formulation, its metabolic stability measured in the presence of rat and human microsomes and NADPH, and its ability to bind to proteins.

[11] = Metabolic stability in human liver microsomes; type: in vitro ADME; settings: NADPH, read-out: HLM T1/2
Method: as §3, §4

[12] = Human plasma protein binding; type: in vitro ADME; settings: read-out: Ppb
MeWo cells [13] = assay: Doxorubicin efflux in MeWo melanoma cells; type: cell-based, human; settings: 30 µM astemizole, 30 min
HaCaT keratinocytes = assay: Cell viability of HaCaT keratinocytes (48 h); type: cell-based, human; settings: 10 µM astemizole
H295R cells [14] = tested on: H295R cells
Ptch1 [15] = molecular target: T1, Ptch1; assay: Doxorubicin efflux measurement in H295R cells; type: cell-based; parameters: endogenous in cells; host or cells: H295R; settings: H295R cells loaded with 10 µM dxr 2 h, then 30 min efflux buffer with 10 µM astemizole
Method: (§5) After 2 h, some coverslips were immediately fixed with PFA and mounted in SlowFade Gold antifade reagent containing DAPI (Invitrogen) for loading control.
as §2
(§6) After 2 h, 3 coverslips were fixed for dxr or Bo-chol loading control. […] Images were acquired using fluorescence microscopy and a 40x objective. Fluorescence was quantified using the Image J software for 100 cells per condition.

Ptch1 [16] = molecular target: T1, Ptch1; assay: BODIPY-cholesterol efflux measurement in H295R cells; type: cell-based; parameters: endogenous in cells; host or cells: H295R; settings: H295R cells loaded with BODIPY-cholesterol 2 h, then 30 min efflux buffer with 10 µM astemizole
Method: as §5, §2, §6

[17] = Cell viability of MeWo melanoma cells (48 h); settings: human, MeWo melanoma cells
Method: (§7) Cell viability was measured after 48 hours
(§8) doxorubicin (dxr) 2 μM. The graphs reported are representative of more than 3 independent
(§9) Cell viability was measured after 48 hours treatment
(§10) the mean ± SEM values of 3 independent experiments. Significance, calculated using ANOVA
(§11) multiple comparison test and Bonferroni correction, was attained at p < 0.05 (*) (***: p < 0.0005).

MeWo cells [18] = assay: Cell viability of MeWo melanoma cells (48 h); settings: MeWo cells, 48 h, serial dilutions of astemizole with 2 µM dxr
Method: as §7, §8, §9, §10, §11

Compound: COc1cccc2c1C(=O)c1c(O)c3c(c(O)c1C2=O)C[C@@](O)(C(=O)CO)C[C@@H]3O[C@H]1C[C@H](N)[C@H](O)[C@H](C)O1 [Dxr, Doxorubicin hydrochloride]
- IC50 (H295R cells [1]; Homo sapiens, NCI-H295R, read-out: Dxr-IC50 Without Astemizole, H295R cells, neutral red, mean ± SEM of 3 experiments): 17.3 ± 3.6 µM
- IC50 (H295R cells [2]): 0.1 ± 0.02 µM

Compound: CSc1ccc2c(c1)C(N1CCN(C)CC1)Cc1ccccc1S2 (stereo not drawn) [P375, methiothepin maleate]
- effect on resistance/growth of hPtch1-expressing yeast in the presence of dxr (Ptch1 [3]): significantly inhibited the resistance of hPtch1-expressing yeast to dxr

Compound: COc1ccc(CCN2CCC(Nc3nc4ccccc4n3Cc3ccc(F)cc3)CC2)cc1 [astemizole, Astemizole]
- effect on amount of dxr in hPtch1-expressing yeast (dxr efflux) (hPtch1): increases the amount of dxr in hPtch1-expressing yeast significantly more than in control yeast
- IC50 at 48 h [4]: ~7 µM
- increase of the efficacy of dxr combined with etoposide and mitotane (EDM) by astemizole (H295R cells [1]; H295R cells, 1 µM astemizole, dxr + 10 µM etoposide + 10 µM mitotane): about eight times
- increase of the cytotoxicity of dxr by astemizole (H295R cells [1]; H295R cells, 1 µM astemizole, dxr alone): about 10 times
- toxicity of astemizole by itself to ACC cells (H295R cells [1]; H295R cells, 1 µM astemizole, no dxr): not toxic to ACC cells by itself
- cooperativity indices (CI), dxr and astemizole (H295R cells [5]): below 1
- effect of astemizole by itself on caspase 3/7 activity (caspase 3/7 activity): does not affect caspase 3/7 activity by itself
- increase of the anti-clonogenic activity of dxr (H295R cells [6]): increased four times
- spheroid size with combination dxr + astemizole (H295R cells [7]): significantly smaller
- logD [8]: 3.5
- solubility [9]: 22.1 µM (≈ 10.1 µg/mL)
- half-life [10]: 31 min
- half-life [11]: > 60 min
- fraction unbound [12]: 0.01
- effect on dxr efflux from melanoma cells (MeWo cells [13]): inhibits dxr efflux from melanoma cells
- effect on keratinocyte viability (HaCaT keratinocytes): very slight effect on keratinocyte viability
- effect of astemizole by itself on cell viability (H295R cells [14]; 7 days, 0.5 µM astemizole, no dxr): does not affect cell viability by itself
- effect of astemizole alone on proliferation (H295R cells [14]; serial dilution of astemizole for 7 days): inhibited their proliferation
- dxr kept inside the cells (Ptch1 [15]): about 73%
- Bo-chol kept inside the cells (Ptch1 [16]): about 95%
- IC50 at 48 h [17]: ~7 µM
- effect on dxr cytotoxicity in melanoma cells (MeWo cells [18]): increases dxr cytotoxicity
- effect on resistance/growth of hPtch1-expressing yeast in the presence of dxr (Ptch1 [3]): able to inhibit the growth of hPtch1-expressing yeast in the presence of dxr
- effect on growth of hPtch1-expressing yeast in the absence of dxr (Ptch1 [3]; no dxr): without effects on the growth of hPtch1-expressing yeast in the absence of dxr
